SMILES strings stand for the structures.

One may read the IC50 as the concentration needed to halve the response being measured. A higher IC50 goes with weaker potency.

One data set concerns p53 wild-type vs. p53 mutant cell lines.
Assay: not given
Conditions: Carol et al. 2013; cited from earlier work.
For `CCOc1cc(C(C)(C)C)ccc1C1=N[C@@](C)(c2ccc(Cl)cc2)[C@@](C)(c2ccc(Cl)cc2)N1C(=O)N1CCN(CCCS(C)(=O)=O)CC1` [RG-7112], the “cytotoxic activity, median IC50” value is listed as “lower median IC50 values for p53 wild-type vs. p53 mutant cell lines”.

For another data set, the target named is p53-MDM2 interaction (GST-MDM2 protein aa 23-117 / biotinylated p53 wt peptide) (Homo sapiens (Human), UniProt Q00987). Nature of the data set: MDM2-p53 Inhibition AlphaScreen. Conditions: 20 nM GST-MDM2 (aa 23-117), 20 nM biotinylated p53 wt peptide. Type of data set: biochemical. From the text: MDM2-p53 Inhibition AlphaScreen
On the technique in general: Alpha assays give light when donor and acceptor beads are brought close together.
`O=C(O)c1ccc(N2C[C@@H]3[C@H](C2=O)[C@@H](c2cccc(Cl)c2F)[C@@]2(C(=O)Nc4cc(Cl)ccc42)N3CC2CCCCC2)cc1` [Compound I-235] returned an IC50 of 980 nM.

With `O=C(O)c1ccc(N2C[C@@H]3[C@H](C2=O)[C@@H](c2cccc(Cl)c2F)[C@@]2(C(=O)Nc4cc(Cl)ccc42)N3CC2CCCC2)cc1` [Compound I-236], the half-inhibitory concentration (IC50) was found to be 488 nM. With `CCOc1cccc(CN2[C@H]3CN(c4ccc(C(=O)O)cc4)C(=O)[C@H]3[C@H](c3cccc(Cl)c3F)[C@]23C(=O)Nc2cc(Cl)ccc23)c1` [Compound I-237], the IC50 amounted to 2 nM. Compound `CCOc1cccc(CN2[C@@H]3CN(c4ccc(C(=O)O)cc4)C(=O)[C@@H]3[C@@H](c3cccc(Cl)c3F)[C@@]23C(=O)Nc2cc(Cl)ccc23)c1` [Compound I-239] had an IC50 of 1160 nM. Consider `CCOc1cccc(CN2[C@H]3CN(c4ccc(C(=O)O)cc4)C(=O)[C@H]3[C@H](c3cccc(Cl)c3F)[C@]23C(=O)Nc2nc(Cl)ccc23)c1` [Compound I-240], for which the midpoint of inhibition, the IC50, lay at 4 nM. In the case of `O=C(O)c1ccc(CN2C[C@H]3[C@@H](C2=O)[C@H](c2cccc(Cl)c2F)[C@]2(C(=O)Nc4cc(Cl)ccc42)N3CC2CC2)cc1` [Compound I-242], the concentration for half-maximal inhibition (IC50) stood at 37 nM.

`O=C(O)c1ccc(N2C[C@H]3[C@@H](C2=O)[C@H](c2ccnc(Cl)c2F)[C@]2(C(=O)Nc4cc(Cl)ccc42)N3CC2CC2)cc1` [Compound I-244]: half-maximal inhibition (IC50) required 4 nM.

For the compound `CCOc1cccc(CN2[C@H]3CN(Cc4ccc(C(=O)O)cc4)C(=O)[C@H]3[C@H](c3cccc(Cl)c3F)[C@]23C(=O)Nc2cc(Cl)ccc23)c1` [Compound I-246], it took 17 nM to reach half-maximal inhibition (IC50).

As to `CCOc1cccc(CN2[C@H]3CN(Cc4ccc(C(=O)O)cc4)C(=O)[C@H]3[C@H](c3cccc(Cl)c3F)[C@@]23C(=O)Nc2cc(Cl)ccc23)c1` [Compound I-248], the IC50 was 485 nM. In the case of `COc1cc(N2C[C@H]3[C@@H](C2=O)[C@H](c2cccc(Br)c2F)[C@]2(C(=O)Nc4cc(Cl)ccc42)N3CC2CC2)ccc1C(=O)O` [Compound I-250], the IC50 is 9 nM. Still for that read-out and setting: under `O=C(O)c1ccc(N2C[C@H]3[C@@H](C2=O)[C@H](c2cccc(Br)c2F)[C@]2(C(=O)Nc4cc(Cl)ccc42)N3CC2CC2)cc1` [Compound I-252] stands 9 nM; under `O=C(O)c1ccc(N2C[C@H]3[C@@H](C2=O)[C@H](c2cccc(Br)c2F)[C@]2(C(=O)Nc4cc(Cl)ccc42)N3CC2CC2)cc1F` [Compound I-254], 9 nM; under `O=C(O)c1ccc(N2C[C@H]3[C@@H](C2=O)[C@H](c2cccc(Cl)c2F)[C@]2(C(=O)Nc4cc(Cl)ccc42)N3CC2CC2)cc1C(F)(F)F` [Compound I-256], 27 nM. Still for that read-out and setting: under `COc1cc(N2C[C@H]3[C@@H](C2=O)[C@H](c2cccc(Cl)c2F)[C@]2(C(=O)Nc4cc(Cl)ccc42)N3CC2CC2)ccc1C(=O)O` [Compound I-258] stands 4 nM; under `O=C(O)c1ccc(N2C[C@H]3[C@@H](C2=O)[C@H](c2cccc(Cl)c2F)[C@]2(C(=O)Nc4cc(Cl)ccc42)N3CC2CC2)cc1OC(F)(F)F` [Compound I-259], 11 nM.

Compound `Cc1cc(N2C[C@H]3[C@@H](C2=O)[C@H](c2cccc(Cl)c2F)[C@]2(C(=O)Nc4cc(Cl)ccc42)N3CC2CC2)ccc1C(=O)O` [Compound I-261] returned a half-maximal inhibitory concentration (IC50) of 5 nM. On the same count and under the same terms, the same measure for `O=C(CO)c1ccc(N2C[C@H]3[C@@H](C2=O)[C@H](c2cccc(Cl)c2F)[C@]2(C(=O)Nc4cc(Cl)ccc42)N3CC2CC2)cc1` [Compound I-262]: 21 nM; for `O=C(O)c1ccc(N2CC[C@H]3[C@@H](C2=O)[C@H](c2cccc(Cl)c2F)[C@]2(C(=O)Nc4cc(Cl)ccc42)N3CC2CC2)c(O)c1` [Compound I-264]: 49 nM. Take `NC(=O)c1ccc(N2CC[C@H]3[C@@H](C2=O)[C@H](c2cccc(Cl)c2F)[C@]2(C(=O)Nc4cc(Cl)ccc42)N3CC2CC2)cc1` [Compound I-268]: the IC50 was found to be 26 nM. The same measure, in the same setting: under `CNC(=O)c1ccc(N2CC[C@H]3[C@@H](C2=O)[C@H](c2cccc(Cl)c2F)[C@]2(C(=O)Nc4cc(Cl)ccc42)N3CC2CC2)cc1` [Compound I-270] stands 27 nM; under `CN(C)C(=O)c1ccc(N2CC[C@H]3[C@@H](C2=O)[C@H](c2cccc(Cl)c2F)[C@]2(C(=O)Nc4cc(Cl)ccc42)N3CC2CC2)cc1` [Compound I-272], 25 nM; under `O=C(NO)c1ccc(N2CC[C@H]3[C@@H](C2=O)[C@H](c2cccc(Cl)c2F)[C@]2(C(=O)Nc4cc(Cl)ccc42)N3CC2CC2)cc1` [Compound I-274], 20 nM. The compound `CN(O)C(=O)c1ccc(N2CC[C@H]3[C@@H](C2=O)[C@H](c2cccc(Cl)c2F)[C@]2(C(=O)Nc4cc(Cl)ccc42)N3CC2CC2)cc1` [Compound I-276] came in with an IC50 of 46 nM. On the same count and under the same terms, the same measure for `CON(C)C(=O)c1ccc(N2CC[C@H]3[C@@H](C2=O)[C@H](c2cccc(Cl)c2F)[C@]2(C(=O)Nc4cc(Cl)ccc42)N3CC2CC2)cc1` [Compound I-278]: 33 nM; for `NC(=O)c1ccc(N2C[C@H]3[C@@H](C2=O)[C@H](c2cccc(Cl)c2F)[C@]2(C(=O)Nc4cc(Cl)ccc42)N3CC2CC2)cc1` [Compound I-280]: 7 nM. `NC(=O)c1ccc(N2C[C@H]3[C@@H](C2=O)[C@H](c2cccc(Cl)c2F)[C@]2(C(=O)Nc4cc(Cl)ccc42)N3CC2CC2)cc1C(F)(F)F` [Compound I-281]: the half-maximal inhibitory concentration (IC50) stood at 67 nM. On the same count and under the same terms, under `CCOc1cccc(CN2[C@H]3CN(c4ccc(C(=O)NO)cc4)C(=O)[C@H]3[C@H](c3cccc(Cl)c3F)[C@]23C(=O)Nc2cc(Cl)ccc23)c1` [Compound I-283] stands 4 nM. On to `CCOc1cccc(CN2[C@H]3CN(c4ccc(C(N)=O)cc4)C(=O)[C@H]3[C@H](c3cccc(Cl)c3F)[C@]23C(=O)Nc2cc(Cl)ccc23)c1` [Compound I-284], for which the concentration for half-maximal inhibition (IC50) turned out to be 3 nM.

`O=C(NO)c1ccc(N2C[C@H]3[C@@H](C2=O)[C@H](c2cccc(Cl)c2F)[C@]2(C(=O)Nc4cc(Cl)ccc42)N3CC2CC2)cc1` [Compound I-285] returned an IC50 of 8 nM. On the same count and under the same terms, under `CN(C)C(=O)c1ccc(N2C[C@H]3[C@@H](C2=O)[C@H](c2cccc(Cl)c2F)[C@]2(C(=O)Nc4cc(Cl)ccc42)N3CC2CC2)cc1` [Compound I-286] stands 10 nM. The same measure, in the same setting: under `CNC(=O)c1ccc(N2C[C@H]3[C@@H](C2=O)[C@H](c2cccc(Cl)c2F)[C@]2(C(=O)Nc4cc(Cl)ccc42)N3CC2CC2)cc1` [Compound I-287] stands 8 nM. On the same count and under the same terms, under `NC(=O)c1ccc(N2C[C@H]3[C@@H](C2=O)[C@H](c2ccnc(Cl)c2F)[C@]2(C(=O)Nc4cc(Cl)ccc42)N3CC2CC2)cc1` [Compound I-288] stands 8 nM. Take `O=C(O)c1ccc(-c2cc(Cl)c(F)c([C@H]3[C@@H]4C(=O)NCC[C@@H]4N(CC4CC4)[C@@]34C(=O)Nc3cc(Cl)ccc34)c2)cc1` [Compound I-290]: the IC50 is 36 nM.

Compound `Nc1ccc(N2CC[C@H]3[C@@H](C2=O)[C@H](c2cccc(Cl)c2F)[C@]2(C(=O)Nc4cc(Cl)ccc42)N3CC2CC2)cc1` [Compound I-292] returned a 50% inhibitory concentration (IC50) of 164 nM.

For the compound `CC(=O)Nc1ccc(N2CC[C@H]3[C@@H](C2=O)[C@H](c2cccc(Cl)c2F)[C@]2(C(=O)Nc4cc(Cl)ccc42)N3CC2CC2)cc1` [Compound I-296], the half-inhibitory concentration (IC50) came to 58 nM. For the compound `O=CNc1ccc(N2CC[C@H]3[C@@H](C2=O)[C@H](c2cccc(Cl)c2F)[C@]2(C(=O)Nc4cc(Cl)ccc42)N3CC2CC2)cc1` [Compound I-298], 86 nM corresponded to half-maximal inhibition (IC50). On the same count and under the same terms, the same measure for `CS(=O)(=O)Nc1ccc(N2CC[C@H]3[C@@H](C2=O)[C@H](c2cccc(Cl)c2F)[C@]2(C(=O)Nc4cc(Cl)ccc42)N3CC2CC2)cc1` [Compound I-300]: 98 nM; for `CS(=O)(=O)Nc1ccc(N2C[C@H]3[C@@H](C2=O)[C@H](c2cccc(Cl)c2F)[C@]2(C(=O)Nc4cc(Cl)ccc42)N3CC2CC2)cc1F` [Compound I-302]: 37 nM; for `CCOC(=O)CNc1ccc(N2CC[C@H]3[C@@H](C2=O)[C@H](c2cccc(Cl)c2F)[C@]2(C(=O)Nc4cc(Cl)ccc42)N3CC2CC2)cc1` [Compound I-304]: 192 nM.

Compound `O=C(O)CNc1ccc(N2CC[C@H]3[C@@H](C2=O)[C@H](c2cccc(Cl)c2F)[C@]2(C(=O)Nc4cc(Cl)ccc42)N3CC2CC2)cc1` [Compound I-306] came in with a 50% inhibitory concentration (IC50) of 67 nM.

The subject of the next data set is acute lymphoblastic leukemia (ALL) xenograft models with mixed-lineage leukemia (MLL) rearrangement.
Assay: not given
Conditions: Carol et al. 2013; cited from earlier work.
`CCOc1cc(C(C)(C)C)ccc1C1=N[C@@](C)(c2ccc(Cl)cc2)[C@@](C)(c2ccc(Cl)cc2)N1C(=O)N1CCN(CCCS(C)(=O)=O)CC1` [RG-7112]: the “efficacy in xenograft models” value was “particularly efficacious”.

For another data set, the system named is solid tumor xenograft models.
Assay: not given
Conditions: Carol et al. 2013; cited from earlier work.
Regarding `CCOc1cc(C(C)(C)C)ccc1C1=N[C@@](C)(c2ccc(Cl)cc2)[C@@](C)(c2ccc(Cl)cc2)N1C(=O)N1CCN(CCCS(C)(=O)=O)CC1` [RG-7112], the tumor growth inhibition result is given as “induced tumor growth inhibition”.

A further data set relates to human acute myeloid leukemia (AML) and human prostate tumor xenograft models harboring p53 wild-type.
Assay: not given
To be noted: Tovar et al. 2013; cited from earlier work.
On to `CCOc1cc(C(C)(C)C)ccc1C1=N[C@@](C)(c2ccc(Cl)cc2)[C@@](C)(c2ccc(Cl)cc2)N1C(=O)N1CCN(CCCS(C)(=O)=O)CC1` [RG7112], for which the “antiproliferative and proapoptotic activity” value is “antiproliferative and proapoptotic activity of RG7112 has been observed”.
